Test results: patent publication US10875860B2, “Azaindenoisoquinoline compounds and uses thereof” (Purdue Research Foundation, priority 2016, dated 2020)
Where two headings read alike, the source gives them in different places.

Experiments:
Top1 = molecular target: T1, Top1 (Homo sapiens, UniProt P11387); assay: Top1-mediated DNA cleavage assay; type: biochemical; set-up: Top1 inhibitory activity level / Top1 inhibitory activity score: key to the marks not given beside the values; settings: for Enzyme Inhibitory Activity Top1: DNA cleavage relative to 1 μM MJ-III-65 (19) and 1 μM camptothecin (18); for Top1 inhibitory activity level: series 1
T1 sequence (P11387 1-765): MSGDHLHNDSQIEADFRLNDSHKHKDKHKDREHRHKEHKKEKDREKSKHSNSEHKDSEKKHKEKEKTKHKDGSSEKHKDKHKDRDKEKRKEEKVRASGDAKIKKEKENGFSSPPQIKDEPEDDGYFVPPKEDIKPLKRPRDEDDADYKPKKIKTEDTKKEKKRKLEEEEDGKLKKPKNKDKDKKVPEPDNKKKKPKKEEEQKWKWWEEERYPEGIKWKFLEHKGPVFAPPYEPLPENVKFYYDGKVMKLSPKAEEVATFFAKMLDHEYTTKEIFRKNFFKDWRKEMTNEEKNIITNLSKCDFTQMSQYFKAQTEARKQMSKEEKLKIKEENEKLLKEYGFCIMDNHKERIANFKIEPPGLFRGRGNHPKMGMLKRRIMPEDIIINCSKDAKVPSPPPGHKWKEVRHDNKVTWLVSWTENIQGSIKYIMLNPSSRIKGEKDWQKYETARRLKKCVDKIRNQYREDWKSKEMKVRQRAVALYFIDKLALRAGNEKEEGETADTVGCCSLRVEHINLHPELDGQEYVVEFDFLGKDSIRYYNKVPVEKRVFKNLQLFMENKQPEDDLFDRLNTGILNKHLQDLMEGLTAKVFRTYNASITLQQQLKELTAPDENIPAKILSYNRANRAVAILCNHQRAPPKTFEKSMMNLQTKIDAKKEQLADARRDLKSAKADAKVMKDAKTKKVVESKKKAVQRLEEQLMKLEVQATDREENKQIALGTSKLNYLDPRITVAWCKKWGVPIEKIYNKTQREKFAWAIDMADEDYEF

Tdp1 = Tdp1 (Homo sapiens, UniProt Q9NUW8); assay: Recombinant Tdp1 assay; type: biochemical
recombinant human TDP2 = molecular target: T2, recombinant human TDP2 (Homo sapiens, UniProt O95551); assay: Recombinant Tdp2 assay; type: biochemical
T2 sequence (O95551 1-362): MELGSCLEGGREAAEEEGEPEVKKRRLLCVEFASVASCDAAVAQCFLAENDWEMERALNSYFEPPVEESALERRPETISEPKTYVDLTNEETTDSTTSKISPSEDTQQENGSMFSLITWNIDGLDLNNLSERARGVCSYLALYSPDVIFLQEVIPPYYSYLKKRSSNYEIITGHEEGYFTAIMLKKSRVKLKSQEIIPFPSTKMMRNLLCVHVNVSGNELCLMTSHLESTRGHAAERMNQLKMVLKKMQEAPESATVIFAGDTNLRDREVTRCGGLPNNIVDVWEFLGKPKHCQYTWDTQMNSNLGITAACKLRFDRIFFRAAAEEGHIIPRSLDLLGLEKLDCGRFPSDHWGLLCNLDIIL

SN12C = assay: NCI-60 cytotoxicity, SN12C; settings: Homo sapiens, read-out: Cytotoxicity (GI50) Renal SN12C
MCF-7 = assay: NCI-60 cytotoxicity, MCF-7; settings: Homo sapiens, MCF7, read-out: Cytotoxicity (GI50) Breast MCF-7
HOP-62 = assay: NCI-60 cytotoxicity, HOP-62; settings: Homo sapiens, HOP-62, read-out: Cytotoxicity (GI50) Lung HOP-62
SF-539 = assay: NCI-60 cytotoxicity, SF-539; settings: Homo sapiens, SF-539, read-out: Cytotoxicity (GI50) CNS SF-539
UACC-62 = assay: NCI-60 cytotoxicity, UACC-62; settings: Homo sapiens, UACC-62, read-out: Cytotoxicity (GI50) Melanoma UACC-62
OVCAR-3 = assay: NCI-60 cytotoxicity, OVCAR-3; settings: Homo sapiens, OVCAR-3, read-out: Cytotoxicity (GI50) Ovarian Ovcar-3
[1] = system: NCI-60 panel of human cancer cell lines; assay: NCI-60 screen, mean graph midpoint over all cell lines; settings: Homo sapiens, read-out: Cytotoxicity (GI50) MGM
HCT-116 = assay: NCI-60 cytotoxicity, HCT-116; type: cell-based; settings: Homo sapiens, single determinations, Table 2, read-out: Cytotoxicity (GI50) Colon HCT-116
DU-145 = assay: NCI-60 cytotoxicity, DU-145; type: cell-based; settings: Homo sapiens, single determinations, Table 2, read-out: Cytotoxicity (GI50) Prostate DU-145
[2] = semiquantitative scale, in duplicate, Table 1, read-out: Enzyme Inhibitory Activity Tdp1
[3] = semiquantitative scale, in duplicate, Table 1, read-out: Enzyme Inhibitory Activity Tdp2
[4] = determined in duplicate, Table 2, read-out: Enzyme Inhibitory Activity Tdp1 (IC50)
[5] = read-out: Enzyme Inhibitory Activity Tdp2 (IC50)
[6] = determined in duplicate, Table 2, read-out: Enzyme Inhibitory Activity Tdp2 (IC50)

Sequence of Tdp1 (Q9NUW8 whole entry): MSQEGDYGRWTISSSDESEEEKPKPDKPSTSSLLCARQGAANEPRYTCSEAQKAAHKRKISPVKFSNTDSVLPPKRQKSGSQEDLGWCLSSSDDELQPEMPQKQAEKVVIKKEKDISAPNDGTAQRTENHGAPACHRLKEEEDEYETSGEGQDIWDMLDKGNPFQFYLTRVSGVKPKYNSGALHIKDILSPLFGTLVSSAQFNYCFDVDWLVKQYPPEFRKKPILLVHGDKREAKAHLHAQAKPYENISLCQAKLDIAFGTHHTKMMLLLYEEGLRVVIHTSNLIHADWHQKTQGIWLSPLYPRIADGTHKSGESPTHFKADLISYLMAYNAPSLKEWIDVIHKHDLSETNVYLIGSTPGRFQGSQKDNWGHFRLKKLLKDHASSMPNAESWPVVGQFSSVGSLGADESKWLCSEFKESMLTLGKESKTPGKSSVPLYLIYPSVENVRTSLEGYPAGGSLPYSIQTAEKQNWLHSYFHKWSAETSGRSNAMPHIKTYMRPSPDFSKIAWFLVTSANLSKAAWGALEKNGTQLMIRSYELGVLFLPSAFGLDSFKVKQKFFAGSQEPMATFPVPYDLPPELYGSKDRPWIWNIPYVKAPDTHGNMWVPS

Row | Enzyme Inhibitory Activity Top1 (Top1; Table 1) | Top1 inhibitory activity level (Top1) | IC50 (Tdp1; [2]) [nM] | IC50 (recombinant human TDP2; [3]) [nM] | melting point [°C] | Enzyme Inhibitory Activity Top1 (Top1; Table 2) | IC50 (Tdp1; [4]) [nM] | IC50 (recombinant human TDP2; [6]) [nM] | SMILES | GI50 (SN12C) [nM] | GI50 (MCF-7) [nM] | GI50 (HOP-62) [nM] | GI50 (SF-539) [nM] | GI50 (UACC-62) [nM] | GI50 (OVCAR-3) [nM] | GI50 [1] [nM] | IC50 (recombinant human TDP2; [5]) [nM] | GI50 (HCT-116) [nM] | GI50 (DU-145) [nM]
1 | +++ | +++ | 12000 to 37000 | 37000 to 111000 | 214 to 216 |  |  |  | COc1cnc2c(c1)C(=O)c1c-2n(CCCNCCN2CCOCC2)c(=O)c2cc([N+](=O)[O-])ccc12 [Compound 13, 7-Aza-5,6-dihydro-9-methoxy-6-[3-((2-morpholinoethyl)amino)propyl]-3-nitro-5,11-dioxo-11H-indeno[1,2-c]isoquinoline] | 80 | 32 | 150 | 311 | 44 | 315 | 177 |  |  | 
2 | ++++ | ++++ | 12000 to 37000 | 37000 to 111000 | 278 to 280 |  |  |  | COc1cnc2c(c1)C(=O)c1c-2n(CCCNC(C)C)c(=O)c2cc([N+](=O)[O-])ccc12 [Compound 14, 7-Aza-5,6-dihydro-6-[3-(isopropylamino)propyl]-9-methoxy-3-nitro-5,11-dioxo-11H-indeno[1,2-c]isoquinoline] | 39 | 12 | 85 | 51 | 19 | 82 | 58 |  |  | 
3 | ++++ | ++++ | 1000 to 12000 | 37000 to 111000 | 266 to 268 |  |  |  | CCNCCCn1c2c(c3ccc([N+](=O)[O-])cc3c1=O)C(=O)c1cc(OC)cnc1-2 [Compound 15, 7-Aza-6-[3-(ethylamino)propyl]-5,6-dihydro-9-methoxy-3-nitro-5,11-dioxo-11H-indeno[1,2-c]isoquinoline] | 53 | 19 | 107 | 70 | 27 | 62 | 79 |  |  | 
4 |  |  |  |  | 274 to 275 |  | 16000 ± 3200 | > 111000 | CNCCCn1c2c(c3ccc(Cl)cc3c1=O)C(=O)c1cc(OC)cnc1-2 [Compound 16g, 3-Chloro-9-methoxy-6-(3-(methylamino)propyl)-5H-pyrido[3′,2′:4,5]cyclopenta[1,2-c]isoquinoline-5,11(6H)-dione] | 1180 | 46 | 220 | 730 | 574 | 1410 | 600 |  | 550 | 331
5 |  |  |  |  | 285 to 292 | ++ | > 111000 | > 111000 | COc1cnc2c(c1)C(=O)c1c-2n(CCCNC(C)C)c(=O)c2cc(F)ccc12 [Compound 17f, 3-Fluoro-6-(3-(isopropylamino)propyl)-9-methoxy-5H-pyrido[3′,2′:4,5]cyclopenta[1,2-c]isoquinoline-5,11(6H)-dione] | 164 | 31 | 107 | 248 | 271 | 190 | 165 |  | 93 | 210
6 |  |  |  |  | 259 to 265 | + | > 111000 | 108000 ± 3000 | CNCCCn1c2c(c3ccc(F)cc3c1=O)C(=O)c1cc(OC)cnc1-2 [Compound 17g, 3-Fluoro-9-methoxy-6-(3-(methylamino)propyl)-5H-pyrido[3′,2′:4,5]cyclopenta[1,2-c]isoquinoline-5,11(6H)-dione] | 211 | 34 | 142 | 368 | 608 | 263 | 245 |  | 143 | 202
7 |  |  |  |  | 157 to 162 | +++ | > 111000 | > 111000 | COc1cnc2c(c1)C(=O)c1c-2n(CCCN2CCCC2)c(=O)c2cc(F)ccc12 [Compound 17i, 3-Fluoro-9-methoxy-6-(3-(pyrrolidin-1-yl)propyl)-5H-pyrido[3′,2′:4,5]cyclopenta[1,2-c]isoquinoline-5,11(6H)-dione] | 241 | 48 | 212 | 360 | 471 | 307 | 288 |  | 153 | 211

Row | SMILES | Enzyme Inhibitory Activity Top1 (Top1; Table 1) | Top1 inhibitory activity level (Top1) | IC50 (Tdp1; [2]) [nM] | IC50 (recombinant human TDP2; [3]) [nM] | melting point [°C] | Enzyme Inhibitory Activity Top1 (Top1; Table 2) | IC50 (Tdp1; [4]) [nM] | IC50 (recombinant human TDP2; [6]) [nM] | GI50 (SN12C) [nM] | GI50 (MCF-7) [nM] | GI50 (HOP-62) [nM] | GI50 (SF-539) [nM] | GI50 (UACC-62) [nM] | GI50 (OVCAR-3) [nM] | GI50 [1] [nM] | IC50 (recombinant human TDP2; [5]) [nM] | GI50 (HCT-116) [nM] | GI50 (DU-145) [nM]
8 | COc1cnc2c(c1)C(=O)c1c-2n(CCCNC2=NCCS2)c(=O)c2cc(Cl)ccc12 [Compound 16c, 3-Chloro-6-(3-((4,5-dihydrothiazol-2-yl)amino)propyl)-9-methoxy-5H-pyrido[3′,2′:4,5]cyclopenta[1,2-c]isoquinoline-5,11(6H)-dione] |  |  |  |  | 295 to 298 | ++ | 11900 ± 3900 |  |  | 36 | 42 | 470 | 95 | 1300 | 390 | 32900 ± 5700 | 350 | 92
9 | COc1cnc2c(c1)C(=O)c1c-2n(CCCNC2=NCCS2)c(=O)c2cc(F)ccc12 [Compound 17c, 6-(3-((4,5-Dihydrothiazol-2-yl)amino)propyl)-3-fluoro-9-methoxy-5H-pyrido[3′,2′:4,5]-cyclopenta-[1,2-c]isoquinoline-5,11(6H)-dione] |  |  |  |  | 226 to 250 | ++ | > 111000 |  | 238 | 33 | 59 | 305 | 344 | 567 | 269 | 61600 ± 14000 | 82 | 144
